Patent publication US5523314A, “Compounds useful as hypoglycemic agents and for treating Alzheimer's disease” (priority 1994, dated 1996)
Read-outs that look alike come from different tables or passages of the source.

Test system: blood glucose level
Assay: Hypoglycemic activity in obese diabetic mice (Table 1)
Type: in vivo, male viable yellow obese-diabetic mice
Details: for response vs control in vivo at 50 mg/kg: Mus musculus, ip
Experimental: The hypoglycemic activity of the compounds of the present invention was determined by testing the efficacy of the compounds in vivo in male viable yellow obese-diabetic mice. The test procedure is described in detail below.
Test formulations were prepared by dissolving the test compound in a saline solution containing 2% Emulphor (a polyoxyethylated vegetable oil surfactant from GAP Corp.) to provide the dose level desired. Each test formulation was administered to six viable yellow obese-diabetic mice intraperitoneally at the beginning of the experiment. Blood glucose levels were determined immediately before the first dose and at 2 and 4 hours thereafter using glucose oxidase. A mean was taken of the 6 values obtained before the first dose and at the 2 and 4 hour intervals. In Table 1, Column 1 provides the example number of the test compound, Column 2 provides the dose level of compound tested, and Columns 3 and 4 provide a measurement of the test animal's blood glucose level 2 and 4 hours after test compound administration, respectively, as a percentage of the test animal' s pre-administration blood glucose level.

[1] = 2 h, 50 mg/kg, intraperitoneal, 2 hrs, read-out: Percent of Initial Blood Glucose Level After 2 hrs.
[2] = 4 h, 50 mg/kg, intraperitoneal, 4 hrs, read-out: Percent of Initial Blood Glucose Level After 4 hrs.

Compound: CCCCOc1ccc(C=C2SC(=S)NC2=O)cc1 [5-[(4-butoxyphenyl)methylene]-2-thioxo-4-thiazolidinone]
- ability to lower blood glucose levels in mammals (compared to structurally similar compounds known in the art, in words): surprising ability to lower blood glucose levels in mammals

Compound: O=C1NC(=S)SC1=Cc1ccc2c(c1)OCO2 [Example 2, 5-[(1,3-benzodioxol-5-yl)methylene]-2-thioxo-4-thiazolidinone]
- response vs control in vivo at 50 mg/kg [1]: 96 ± 1%
- response vs control in vivo at 50 mg/kg [2]: 82 ± 3%

Compound: O=C1NC(=S)SC1=Cc1ccnc2ccccc12 [Example 3, 5-[(4-quinolinyl)methylene]-2-thioxo-4-thiazolidinone]
- response vs control in vivo at 50 mg/kg [1]: 90 ± 10%
- response vs control in vivo at 50 mg/kg [2]: 73 ± 3%

Compound: O=C1NC(=S)SC1=Cc1ccccc1O [Example 7, 5-[(2-hydroxyphenyl)methylene]-2-thioxo-4-thiazolidinone]
- response vs control in vivo at 50 mg/kg [1]: 80 ± 4%
- response vs control in vivo at 50 mg/kg [2]: 91 ± 7%

Compound: O=C1NC(=S)SC1=Cc1ccccc1[N+](=O)[O-] [Example 9, 5-[(2-nitrophenyl)methylene]-2-thioxo-4-thiazolidinone]
- response vs control in vivo at 50 mg/kg [1]: 91 ± 8%
- response vs control in vivo at 50 mg/kg [2]: 83 ± 6%

Compound: O=C1NC(=S)SC1=Cc1cccc([N+](=O)[O-])c1 [Example 10, 5-[(3-nitrophenyl)methylene]-2-thioxo-4-thiazolidinone]
- response vs control in vivo at 50 mg/kg [1]: 89 ± 4%
- response vs control in vivo at 50 mg/kg [2]: 80 ± 4%

Compound: O=C1NC(=S)SC1=Cc1cccc(O)c1 [Example 11, 5-[(3-hydroxyphenyl)methylene]-2-thioxo-4-thiazolidinone]
- response vs control in vivo at 50 mg/kg [1]: 84 ± 3%
- response vs control in vivo at 50 mg/kg [2]: 85 ± 6%

Compound: COc1ccc(C=C2SC(=S)NC2=O)c(OC)c1 [Example 12, 5-[(2,4-dimethoxyphenyl)methylene]-2-thioxo-4-thiazolidinone]
- response vs control in vivo at 50 mg/kg [1]: 90 ± 7%
- response vs control in vivo at 50 mg/kg [2]: 69 ± 6%

Compound: O=C1NC(=S)SC1=Cc1ccc(F)cc1 [Example 13, 5-[(4-fluorophenyl)methylene]-2-thioxo-4-thiazolidinone]
- response vs control in vivo at 50 mg/kg [1]: 94 ± 4%
- response vs control in vivo at 50 mg/kg [2]: 88 ± 5%

Compound: O=C1NC(=S)SC1=Cc1cccs1 [Example 14, 5-[(2-thienyl)methylene]-2-thioxo-4-thiazolidinone]
- response vs control in vivo at 50 mg/kg [1]: 84 ± 7%
- response vs control in vivo at 50 mg/kg [2]: 71 ± 8%

Compound: COc1cc(C(C)=C2SC(=S)NC2=O)cc(OC)c1OC [Example 19, 5-[(3,4,5-trimethoxyphenyl)methylmethylene]-2-thioxo-4-thiazolidinone]
- Percent of Initial Blood Glucose Level After 2 hrs. (50 mg/kg, intraperitoneal, 2 hrs): 85 ± 14%
- Percent of Initial Blood Glucose Level After 4 hrs. (50 mg/kg, intraperitoneal, 4 hrs): 75 ± 4%

Compound: COc1cc(C=C2SC(=S)NC2=O)ccc1O [Example 20, 5-[(3-methoxy-4-hydroxyphenyl)methylene]-2-thioxo-4-thiazolidinone]
- response vs control in vivo at 50 mg/kg [1]: 76 ± 3%
- response vs control in vivo at 50 mg/kg [2]: 70 ± 5%

Compound: O=C1NC(=S)SC1=Cc1cccc(Cl)c1 [Example 23, 5-[(3-chlorophenyl)methylene]-2-thioxo-4-thiazolidinone]
- response vs control in vivo at 50 mg/kg [1]: 74 ± 6%
- response vs control in vivo at 50 mg/kg [2]: 90 ± 6%

Compound: COc1ccc(C=C2SC(=S)NC2=O)cc1C [Example 27, 5-[(3-methyl-4-methoxyphenyl)methylene]-2-thioxo-4-thiazolidinone]
- response vs control in vivo at 50 mg/kg [1]: 93 ± 3%
- response vs control in vivo at 50 mg/kg [2]: 84 ± 6%

Compound: O=C1NC(=S)SC1=Cc1ccccc1-c1ccccc1 [Example 29, 5-[[(1,1'-biphenyl)-2-yl]methylene]-2-thioxo-4-thiazolidinone]
- response vs control in vivo at 50 mg/kg [1]: 84 ± 5%
- response vs control in vivo at 50 mg/kg [2]: 77 ± 6%

Compound: C=CCN1C(=O)C(=Cc2ccc(O)c(OC)c2)SC1=S [Example 30, 5-[(3-methoxy-4-hydroxyphenyl)methylene]-3-(2-propenyl)-2-thioxo-4-thiazolidinone]
- response vs control in vivo at 50 mg/kg [1]: 78 ± 7%
- response vs control in vivo at 50 mg/kg [2]: 81 ± 5%
